Molecules are shown by their SMILES.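 Tested at 5 concentrations; 48 h exposure; 96-well plates; endpoints linearly interpolated, else capped at highest concentration. GI50 = concentration required for 50% inhibition of growth. TGI marks complete inhibition of growth.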 A value given as a limit tells only on which side of the number the result lay.

16 compounds from PubChem BioAssay (NCI) can be followed below.

Assay in all cases: NCI-60 cell line screen, 48 h
Test [1] has as its system A549 NSCLC.
Test [2] relates to ACHN renal.
In test [3] the test system is HS 578T breast.
The test system of test [4] is MALME-3M melanoma.
Test [5] relates to MDA-MB-435.
For test [6], the system named is PC-3 prostate.
Test [7] deals with RXF 393 renal.
The test system of test [8] is SF-268 CNS.
Test [9] has as its system SK-MEL-5 melanoma.
For test [10], the system named is SNB-19 CNS.

`COc1cc2c(cc1Cc1cccc(Cl)c1F)c(=O)c(C(=O)O)cn2[C@@H](CO)C(C)C`: the GI50 in test [1] was 3.11 µM; in [2], 4.63 µM; in test [3] it was 3.97 µM; in [4], 5.16 µM; in test [5], 3.84 µM; in test [6], 2.59 µM. In addition, the GI50 in [7] is 4.57 µM; in [8], 5.42 µM; in [9] it was 2.85 µM; in test [10], 3.07 µM. In addition, the TGI in test [1] is 12.2 µM; in test [2], 20.9 µM; in test [3] it was 32.7 µM; in test [4] it was 18.9 µM; in test [5], 15.2 µM; in test [6], 9.21 µM. Moreover, the TGI in test [7] worked out at 16.3 µM; in [8], 19.1 µM; in test [9] it was 8.88 µM; in test [10], 16 µM.
As to `N/C(=N/N=C/c1ccccc1)N/N=C\c1ccccc1`, the GI50 in [1] was 3.79 µM; in test [2], 6.4 µM; in [3] it was 3.73 µM; in test [4], 6.84 µM; in test [5], 1.76 µM; in test [6] it was 6.21 µM. The GI50 in test [7] was 2.46 µM; in [8], 9.66 µM; in test [9] it was 3.38 µM; in test [10], above 100 µM. Further, the TGI in test [1] was above 100 µM; in test [2] it was above 100 µM; in test [3], 42.5 µM; in test [4] it was 27.2 µM; in test [5], 6.61 µM; in test [6], above 100 µM. In addition, the TGI is 8.48 µM in test [7], above 100 µM in test [8], 13.3 µM in test [9] and above 100 µM in test [10].
As to `CC(=O)Nc1c(I)c(NC(C)=O)c(I)c(C(=O)O)c1I`, the GI50 in test [1], in [2], in test [3], in [4], in test [5] and in test [6] was above 100 µM each time. The GI50 in test [7] and in test [9] was above 100 µM in each case. Moreover, the TGI in test [1], in [2], in test [3], in test [4], in [5] and in test [6] was above 100 µM each time. For the same compound, the TGI in [7] and in test [9] was above 100 µM in each case.
As for `COc1cccc(/C=N/NC(=O)c2ccccc2N2CCCC2)c1O`, the GI50 in test [1] is 18.8 µM; in test [2] it was 2.72 µM; in test [3], 10.3 µM; in test [4], 15 µM; in [5], 18.3 µM; in [6], 6.48 µM. Further, the GI50 in test [7] is 44.4 µM; in [8], 6.46 µM; in [9], 5.3 µM; in test [10] it was 8.93 µM. Moreover, the TGI is above 100 µM in [1]; above 100 µM in test [2]; 68.8 µM in test [3]; 88.1 µM in test [4]; above 100 µM in test [5]; above 100 µM in test [6]. Further, the TGI in test [7] is above 100 µM; in test [8], above 100 µM; in test [9], 24.4 µM; in test [10], above 100 µM.
For `O=C([O][Hg][CH2]C1OCCOC1[CH2][Hg][O]C(=O)c1ccccc1)c1ccccc1` (stereo not drawn), the GI50 was 16.7 µM in test [1]; 1.95 µM in [2]; 16.1 µM in test [3]; 2.18 µM in test [4]; 15.9 µM in test [5]; 6.52 µM in test [6]. Further, the GI50 in test [7] was 2.08 µM; in test [8], 17.2 µM; in [9], 7.58 µM; in [10] it was 16.5 µM. In addition, the TGI in test [1] is 32.8 µM; in test [2], 3.4 µM; in [3], 43.9 µM; in [4] it was 3.88 µM; in test [5], 29.3 µM; in test [6] it was 14.6 µM. The TGI in test [7] was determined as 4.06 µM; in test [8], 30.9 µM; in test [9], 22.8 µM; in test [10], 30.8 µM.
As for `CCCCCCCCC/C(=N\NC(=O)c1ccncc1)c1ccc(O)c(O)c1O`, the GI50 is 0.302 µM in test [1]; 0.0734 µM in test [2]; 0.491 µM in [4]; 0.456 µM in test [5]; 1.6 µM in test [6]; 0.168 µM in [7]. Further, the GI50 in test [8] is 0.142 µM; in [9] it was 0.139 µM; in [10], 0.272 µM. The TGI in [1], in [2], in test [3], in [4], in [5] and in [6] was above 100 µM in each case. Besides, the TGI in test [7] was 5.2 µM; in [8], above 23.4 µM; in test [9], 0.494 µM; in test [10] it was above 100 µM.
`CN1CCC2(CC1)NC(=O)c1c(c3ccc(Cl)c(Cl)c3n1C)C2C#N` (stereo not drawn): the GI50 in test [1] was 7.33 µM; in test [2], 5.75 µM; in test [3], 7.63 µM; in [4], 3.11 µM; in test [5], 2.29 µM; in [6], 5.7 µM. Further, the GI50 in [7] was 2.27 µM; in test [8] it was 4.54 µM; in test [9], 2.11 µM; in test [10], 12.8 µM. Besides, the TGI was 24.6 µM in test [1]; 19.4 µM in [2]; 45.6 µM in test [3]; 9.52 µM in test [4]; 6.58 µM in [5]; 21.1 µM in [6]. Besides, the TGI in test [7] came to 7.3 µM; in test [8], 15.2 µM; in test [9], 5.18 µM; in test [10] it was 27.4 µM.
Consider `[Cl][Hg][c]1ccc(Cl)s1`, for which the GI50 is 18.7 µM in [1]; 1.78 µM in [2]; 4.41 µM in test [3]; 1.3 µM in test [4]; 2.08 µM in test [5]; 5.62 µM in test [6]. Also, the GI50 in test [7] was 1.56 µM; in [8], 3.48 µM; in test [9], 2.45 µM; in test [10], 3.15 µM. Besides, the TGI was 60.9 µM in test [1]; 3.33 µM in test [2]; 73.7 µM in test [3]; 2.94 µM in [4]; 5.7 µM in test [5]; 16.2 µM in test [6]. Further, the TGI was 2.95 µM in [7], 13.3 µM in test [8], 7.34 µM in test [9] and 13.4 µM in test [10].
As to `N#Cc1c(N2CCOCC2)nc(=S)[nH]c1-c1ccccc1`, the GI50 in test [1] is 21.3 µM; in test [2], 14.1 µM; in test [3] it was 7.65 µM; in test [4], 5.19 µM; in test [5], 29.7 µM; in test [6], 2.1 µM. In addition, the GI50 in test [7] is 21 µM; in test [8] it was 33.5 µM; in test [9] it was 9.36 µM; in test [10], 89.9 µM. For the same compound, the TGI in test [1] is above 100 µM; in test [2] it was above 100 µM; in test [3], 60.7 µM; in [4], 58.9 µM; in test [5], above 100 µM; in [6], 8.79 µM. Moreover, the TGI in [7], in test [8], in test [9] and in [10] was above 100 µM in each case.
For `CC(C)(C)[Si](C)(C)OC1[C@@H](O[Si](C)(C)C(C)(C)C)[C@@H](CNC(=O)NC(=O)CF)O[C@H]1n1cnc2c(NC(=O)Nc3ccccc3)ncnc21` (stereo partly drawn), the GI50 in test [1] is 6.92 µM; in test [2] it was 8.67 µM; in test [3], 10.1 µM; in [4], 30.8 µM; in [5] it was 14.6 µM; in test [6], 2.19 µM. In addition, the results for the GI50 in test [7], in [8] and in test [9] were 1.35 µM, 12.6 µM and 3.07 µM, respectively. Besides, the TGI was above 50 µM in [1]; 38.6 µM in test [2]; above 50 µM in [3]; above 50 µM in [4]; above 50 µM in [5]; above 50 µM in [6]. For the same compound, the TGI in test [7] was 4.57 µM; in test [8], above 50 µM; in test [9] it was 25.6 µM.
With `C=C1C(=O)O[C@H]2C[C@@H]1CC/C(C)=C/CC/C(C)=C/CC[C@@]2(C)O`, the GI50 in [1] is above 100 µM; in [2] it was 55.3 µM; in test [3], 48 µM; in [5], 57.5 µM; in [6], 29.9 µM; in [7], above 100 µM. Further, the GI50 in [8] was above 100 µM; in test [9], 37.7 µM; in test [10] it was above 100 µM. Further, the TGI in test [1] is above 100 µM; in test [2], above 100 µM; in [3] it was above 100 µM; in [5], above 100 µM; in test [6] it was 95 µM; in test [7], above 100 µM. Also, the TGI in [8], in [9] and in [10] was above 100 µM throughout.
Turning to `COc1ccc(Cn2cc3c(c2-c2ccccc2)CCc2cnoc2-3)cc1OC`, the GI50 in test [1] was 0.875 µM; in [2], 2.83 µM; in test [3], 0.564 µM; in test [5] it was 0.244 µM; in test [6], 3.08 µM; in [7], 1.68 µM. Besides, the GI50 was 3.68 µM in [8], 0.49 µM in test [9] and 2.79 µM in [10]. The TGI in test [1] was above 100 µM; in test [2], above 100 µM; in [3] it was 6.94 µM; in test [5], 0.864 µM; in [6] it was above 100 µM; in test [7] it was above 100 µM. For the same compound, the figures for the TGI in [8], in [9] and in test [10] were above 100 µM, 10.4 µM and above 100 µM, respectively.
For the compound `N#C[Se]CCN1C(=O)C2C(C1=O)[C@H]1C=C[C@@H]2S1` (stereo partly drawn), the GI50 in test [1] was 1.93 µM; in test [2] it was 2.07 µM; in test [3], 1.75 µM; in [4], 1.53 µM; in [5], 1.7 µM; in test [6], 2.11 µM. In addition, the GI50 in test [7] is 1.63 µM; in [8], 1.95 µM; in test [9] it was 2.02 µM. Moreover, the TGI in test [1] was 4.56 µM; in test [2] it was 3.99 µM; in [3] it was 6.21 µM; in test [4] it was 3.65 µM; in test [5], 3.26 µM; in test [6] it was 5.9 µM. In addition, the TGI in test [7] is 3.27 µM; in test [8] it was 3.86 µM; in test [9], 4.09 µM.
With `CCCCCCn1c(-c2ccc(C(=O)O/N=C(\N)c3ccc4ccccc4c3)cc2)nc(-c2ccccc2)c1-c1ccccc1`, the GI50 is 2.55 µM in test [1]; 2.55 µM in test [3]; above 49.9 µM in test [4]; 7.42 µM in test [5]; 7.32 µM in test [6]; 5.28 µM in test [7]. Further, the GI50 in [8] was 6.71 µM; in [9], above 100 µM; in test [10], 22.3 µM. In addition, the TGI in test [1] was above 100 µM; in [3], above 28.7 µM; in test [4], above 100 µM; in [5] it was above 100 µM; in [6], above 100 µM; in [7], 29.7 µM. Also, the TGI in test [8], in [9] and in test [10] was above 100 µM throughout.
With `CCc1nc(N)nc(N)c1-c1ccc2nnn(O)c2c1`, the TGI in test [1], in test [2], in test [3], in [5], in [6] and in [7] was above 100 µM each time. Besides, the TGI in [8], in test [9] and in [10] was above 100 µM throughout.
Consider `COC(=O)C1=CO[C@@H](OC2OC(CO)C(O)C(O)C2O)[C@H]2[C@@H](C)[C@@H](O)[C@@H](O)[C@@H]12` (stereo partly drawn), for which the TGI in [1], in test [2], in test [3], in test [4], in test [5] and in test [6] was above 100 µM in each case. In addition, the TGI in [7], in [8] and in test [9] was above 100 µM throughout.
